In ChEMBL document CHEMBL1201862, “PubChem BioAssay data set” (2004):
The source made the active and inactive calls.

Tests used:
[1] = molecular target: T1, Dual specificity protein phosphatase 3 (Homo sapiens, UniProt P51452); experiment: VHR1 phosphatase inhibitors, primary screen, biochemical, absorbance, uHTS (AID 1654)
[2] = molecular target: T1, Dual specificity protein phosphatase 3; experiment: VHR1 phosphatase inhibitors, biochemical (AID 1878)
[3] = molecular target: T2, Dual specificity protein phosphatase 6 (Rattus norvegicus, UniProt Q64346); experiment: inhibition of rat DUSP6 enzyme activity – biochemical, in vitro, primary screen (AID 425)
T2 sequence (Q64346 whole entry): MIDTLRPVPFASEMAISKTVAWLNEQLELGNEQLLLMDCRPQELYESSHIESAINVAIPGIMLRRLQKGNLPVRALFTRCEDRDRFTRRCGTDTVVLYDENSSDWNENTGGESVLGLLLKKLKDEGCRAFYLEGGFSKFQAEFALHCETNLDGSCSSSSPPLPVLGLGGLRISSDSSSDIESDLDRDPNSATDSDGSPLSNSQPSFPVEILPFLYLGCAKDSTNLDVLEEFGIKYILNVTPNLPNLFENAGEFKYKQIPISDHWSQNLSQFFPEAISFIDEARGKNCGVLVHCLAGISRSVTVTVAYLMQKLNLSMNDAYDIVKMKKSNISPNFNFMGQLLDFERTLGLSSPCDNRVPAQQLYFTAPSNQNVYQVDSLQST

[4] = molecular target: T3, Carboxy-terminal domain RNA polymerase II polypeptide A small phosphatase 1 (Homo sapiens, UniProt Q9GZU7); experiment: CTDSP1 inhibitors, concentration-response, biochemical, absorbance readout, ultra-high-throughput screen actives (AID 540297); format: functional
T3 sequence (Q9GZU7 whole entry): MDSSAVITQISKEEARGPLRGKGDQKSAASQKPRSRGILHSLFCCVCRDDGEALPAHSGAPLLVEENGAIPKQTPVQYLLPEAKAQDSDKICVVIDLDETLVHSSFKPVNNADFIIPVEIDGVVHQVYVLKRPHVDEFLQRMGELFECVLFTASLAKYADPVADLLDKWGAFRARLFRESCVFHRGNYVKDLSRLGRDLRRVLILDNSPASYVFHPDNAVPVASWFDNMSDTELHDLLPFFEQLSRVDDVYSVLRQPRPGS

[5] = molecular target: T4, Streptokinase A (Streptococcus pyogenes serotype M1, UniProt P10520); experiment: viability-normalized secreted streptokinase activity reduction – plasminogen activation absorbance, OD405, dose response (AID 1914); format: functional, Streptococcus pyogenes M1 GAS;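 further: secreted streptokinase activity via plasminogen activation per viability signal from cell pellet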
T4 sequence (P10520 whole entry): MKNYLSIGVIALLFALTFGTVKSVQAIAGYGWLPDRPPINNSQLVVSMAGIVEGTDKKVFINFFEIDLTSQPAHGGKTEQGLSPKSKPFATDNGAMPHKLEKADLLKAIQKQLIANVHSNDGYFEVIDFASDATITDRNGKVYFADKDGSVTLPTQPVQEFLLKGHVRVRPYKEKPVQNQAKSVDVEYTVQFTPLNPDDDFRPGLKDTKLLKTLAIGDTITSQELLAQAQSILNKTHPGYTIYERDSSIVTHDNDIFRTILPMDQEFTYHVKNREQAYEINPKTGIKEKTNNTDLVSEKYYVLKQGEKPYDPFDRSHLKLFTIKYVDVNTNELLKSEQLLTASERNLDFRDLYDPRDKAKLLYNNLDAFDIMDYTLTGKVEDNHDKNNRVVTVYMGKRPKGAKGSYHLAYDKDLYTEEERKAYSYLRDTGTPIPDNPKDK

[6] = molecular target: T5, Intestinal-type alkaline phosphatase (Mus musculus, UniProt P24822); experiment: PubChem AID 488875; format: functional
[7] = molecular target: T6, Intestinal-type alkaline phosphatase (Homo sapiens, UniProt P09923); experiment: human intestinal alkaline phosphatase activators, dose response, biochemical, luminescence, uHTS hits (AID 463120); format: functional
[8] = molecular target: T6, Intestinal-type alkaline phosphatase; experiment: activation of human intestinal alkaline phosphatase – biochemical, luminescent, uHTS hits, set 2, dose response (AID 488817); format: functional;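 further: potency of activators that raise enzyme activity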
[9] = molecular target: T7, Alkaline phosphatase, tissue-nonspecific isozyme (Homo sapiens, UniProt P05186); experiment: activation of tissue-nonspecific alkaline phosphatase – biochemical, TNAP isozyme, human IAP uHTS hits, selectivity assay for human IAP activator project, dose response (AID 488886); format: functional;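 further: potency of compounds raising TNAP activity as a selectivity check on IAP activators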
T7 sequence (P05186 whole entry): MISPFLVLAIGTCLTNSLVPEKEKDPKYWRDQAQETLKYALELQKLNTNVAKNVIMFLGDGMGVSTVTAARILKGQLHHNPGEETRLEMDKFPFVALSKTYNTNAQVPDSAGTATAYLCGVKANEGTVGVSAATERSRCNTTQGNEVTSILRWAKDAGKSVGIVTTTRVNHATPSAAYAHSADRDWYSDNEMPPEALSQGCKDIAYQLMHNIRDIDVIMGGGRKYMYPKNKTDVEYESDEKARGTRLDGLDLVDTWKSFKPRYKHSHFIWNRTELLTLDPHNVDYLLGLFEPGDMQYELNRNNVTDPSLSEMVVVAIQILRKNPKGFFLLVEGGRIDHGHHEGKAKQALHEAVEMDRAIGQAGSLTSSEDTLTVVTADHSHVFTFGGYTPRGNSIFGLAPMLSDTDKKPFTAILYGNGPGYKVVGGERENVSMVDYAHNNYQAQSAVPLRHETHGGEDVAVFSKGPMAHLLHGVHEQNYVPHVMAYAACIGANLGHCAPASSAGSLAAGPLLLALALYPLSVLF

[10] = molecular target: Lysine-specific demethylase 4C (Homo sapiens, UniProt Q9H3R0); experiment: inhibition of JMJD2C H3K9me3 demethylation – biochemical, DELFIA europium, cherry-picked samples, dose response (AID 488835); format: functional
[11] = molecular target: T5, Intestinal-type alkaline phosphatase; experiment: PubChem AID 488785; format: functional
[12] = molecular target: T7, Alkaline phosphatase, tissue-nonspecific isozyme; experiment: TNAP enzyme inhibition by screening hits, dose response, selectivity assay for mouse IAP inhibitor project, biochemical, human TNAP, uHTS hits (AID 488906); format: functional
[13] = molecular target: T6, Intestinal-type alkaline phosphatase; experiment: inhibition of human intestinal alkaline phosphatase – biochemical, dose response (AID 488876); format: functional
[14] = Luminescence Cell-Based/Microorganism Confirmation at Dose of Inhibitors of Trypanosoma cruzi Infection. [Related pubchem assays: 1885, 1968 ]; format: functional
[15] = Trypanosoma cruzi growth suppression in host cells – NIH3T3 host cells, beta-gal luminescence, confirmation (AID 2044); format: functional, cell-based;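 further: intracellular parasites grown in NIH/3T3 mouse fibroblasts as host cells; luminescent beta-galactosidase reporter signal from transgenic T. cruzi replicating inside host cells; inhibitors lower the luminescence signal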
[16] = Luminescence Cell-Based Secondary HTS screen to identify cytotoxic compounds of NIH3T3 cells. [Related pubchem assays: 1885, 1968 ]; format: functional
[17] = NIH3T3 cell viability loss – ATP luminescence, mouse fibroblasts, counter-screen, dose response (AID 2010); format: functional, cell-based;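 further: cells exposed to compound for about 90 hours before reading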
[18] = T. cruzi infection blockers in NIH3T3 cells – beta-gal luminescence, NIH3T3 host cells, confirmation (AID 2630); format: functional, cell-based; conditions: Mus musculus

T6 sequence (P09923 whole entry): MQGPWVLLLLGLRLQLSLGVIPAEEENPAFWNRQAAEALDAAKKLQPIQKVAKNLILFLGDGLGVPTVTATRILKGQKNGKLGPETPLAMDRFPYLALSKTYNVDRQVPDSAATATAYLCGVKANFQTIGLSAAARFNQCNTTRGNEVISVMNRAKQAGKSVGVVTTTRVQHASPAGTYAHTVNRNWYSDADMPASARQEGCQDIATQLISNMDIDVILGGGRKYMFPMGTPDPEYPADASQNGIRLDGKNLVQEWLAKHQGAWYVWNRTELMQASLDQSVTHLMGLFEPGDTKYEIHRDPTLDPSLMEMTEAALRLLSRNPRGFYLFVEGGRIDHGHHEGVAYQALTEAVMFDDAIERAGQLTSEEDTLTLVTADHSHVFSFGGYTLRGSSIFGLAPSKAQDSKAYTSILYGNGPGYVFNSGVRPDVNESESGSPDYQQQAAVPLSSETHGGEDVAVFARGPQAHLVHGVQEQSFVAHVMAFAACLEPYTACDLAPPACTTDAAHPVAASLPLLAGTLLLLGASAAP
T1 sequence (P51452 whole entry): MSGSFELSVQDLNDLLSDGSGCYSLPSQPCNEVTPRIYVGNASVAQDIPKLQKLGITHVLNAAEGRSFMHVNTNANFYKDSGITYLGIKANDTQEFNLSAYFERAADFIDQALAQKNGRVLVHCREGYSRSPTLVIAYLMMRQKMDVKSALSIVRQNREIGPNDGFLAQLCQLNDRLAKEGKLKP
T5 sequence (P24822 whole entry): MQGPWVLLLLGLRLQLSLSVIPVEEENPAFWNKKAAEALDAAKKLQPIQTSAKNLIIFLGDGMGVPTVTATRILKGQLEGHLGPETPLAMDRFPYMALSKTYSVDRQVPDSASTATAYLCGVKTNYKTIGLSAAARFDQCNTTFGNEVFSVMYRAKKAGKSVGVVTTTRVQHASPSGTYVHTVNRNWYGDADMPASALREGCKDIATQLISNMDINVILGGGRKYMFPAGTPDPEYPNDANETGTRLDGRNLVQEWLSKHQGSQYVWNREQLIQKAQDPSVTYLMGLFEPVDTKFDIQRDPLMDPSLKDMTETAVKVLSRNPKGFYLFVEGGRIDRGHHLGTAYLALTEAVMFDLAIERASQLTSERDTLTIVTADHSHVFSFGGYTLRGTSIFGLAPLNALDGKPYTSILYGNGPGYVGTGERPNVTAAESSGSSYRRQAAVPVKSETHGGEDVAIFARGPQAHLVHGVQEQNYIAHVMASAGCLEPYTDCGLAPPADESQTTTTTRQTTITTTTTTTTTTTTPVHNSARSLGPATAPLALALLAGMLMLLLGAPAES
Chain of Lysine-specific demethylase 4C (Q9H3R0 whole entry): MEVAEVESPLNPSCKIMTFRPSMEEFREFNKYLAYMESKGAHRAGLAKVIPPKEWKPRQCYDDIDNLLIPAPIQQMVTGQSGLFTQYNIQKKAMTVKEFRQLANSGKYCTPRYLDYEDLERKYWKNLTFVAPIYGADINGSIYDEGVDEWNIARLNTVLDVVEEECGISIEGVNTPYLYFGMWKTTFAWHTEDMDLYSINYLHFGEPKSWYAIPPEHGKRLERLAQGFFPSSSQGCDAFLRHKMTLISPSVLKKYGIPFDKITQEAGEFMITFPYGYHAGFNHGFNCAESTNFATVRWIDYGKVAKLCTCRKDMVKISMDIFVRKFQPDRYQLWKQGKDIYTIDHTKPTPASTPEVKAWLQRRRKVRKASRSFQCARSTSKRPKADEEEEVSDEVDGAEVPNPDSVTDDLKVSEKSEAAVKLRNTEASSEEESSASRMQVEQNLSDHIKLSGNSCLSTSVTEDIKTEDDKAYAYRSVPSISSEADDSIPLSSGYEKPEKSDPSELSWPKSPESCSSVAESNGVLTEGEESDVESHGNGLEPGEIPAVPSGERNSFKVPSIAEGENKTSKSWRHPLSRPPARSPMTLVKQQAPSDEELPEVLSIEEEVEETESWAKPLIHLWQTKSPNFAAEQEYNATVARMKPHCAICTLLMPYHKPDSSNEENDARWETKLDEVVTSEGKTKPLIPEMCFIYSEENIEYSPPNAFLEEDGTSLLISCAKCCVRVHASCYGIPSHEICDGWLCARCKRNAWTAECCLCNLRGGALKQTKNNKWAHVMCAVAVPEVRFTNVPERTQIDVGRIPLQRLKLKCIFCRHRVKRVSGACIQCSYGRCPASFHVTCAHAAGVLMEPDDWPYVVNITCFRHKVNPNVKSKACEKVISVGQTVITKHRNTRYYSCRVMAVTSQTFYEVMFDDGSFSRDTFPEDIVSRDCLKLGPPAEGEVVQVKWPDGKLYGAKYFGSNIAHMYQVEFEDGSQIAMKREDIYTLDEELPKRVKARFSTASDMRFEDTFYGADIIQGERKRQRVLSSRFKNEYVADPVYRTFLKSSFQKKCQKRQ

Q: For CN1C(=O)/C(=C2\SC(=S)N(CCCCCC(=O)O)C2=O)c2ccccc21, which IC50 [1] is on record?
A: 5.97 µM (active)

Q: What about the IC50 [2] of the same compound?
A: 2.4 µM (active)

Q: And the IC50 [3]?
A: > 158 µM (not active)

Q: And the IC50 [4]?
A: 0.836 µM (active)

Q: For CCC(NC(=S)NC1CCCCC1)c1ccc(C(C)C)cc1 (stereo not drawn), which EC50 [5] is on record?
A: 43.4 µM (active)

Q: And the EC50 [6]?
A: 60.1 µM (active)

Q: What about the EC50 [7] of the same compound?
A: 81.2 µM (active)

Q: What about the EC50 [8] of the same compound?
A: 52.4 µM (active)

Q: And the EC50 [9]?
A: 54.3 µM (active)

Q: Which AC50 [10] does the source give for COc1ccccc1N1CCN(C(=O)CSc2nc(C)cc(O)n2)CC1 here?
A: 10.1 µM (active)

Q: For CCn1nc(C)c(CN2CCC(C(=O)Nc3cccc(-c4cccc(Cl)c4)c3)CC2)c1C, which IC50 [11] is on record?
A: 1.87 µM (active)

Q: And the IC50 [12]?
A: 41 µM (active)

Q: And the IC50 [13]?
A: 4.61 µM (active)

Q: Which results are given for CCOc1ccc2oc(=O)cc(CN3CCN(Cc4ccccc4)CC3)c2c1?
A: EC50 [14]: 0.903 µM (inconclusive); EC50 [15]: 0.216 µM (active); EC50 [16]: > 195 µM (inconclusive); EC50 [17]: > 30 µM (not active); EC50 [18]: 0.903 µM (active)
